Data set [1] is described as follows: Surface tension interaction by visual observation of glass smearing above the water level. Format: physicochemical. As to the method: This example sets forth comparisons of the surface tension interactions of the compositions of Example A2-A7. The surface tension interactions of the compositions of various active ingredients mixed with quillaja powder at various fixed ratios were specifically compared with those of the compositions of various active ingredients without quillaja powder. Surface tension interaction is determined by visual observation of glass smearing of active ingredient powders above the water level. • a) Relative surface tension interaction without quillaja powder: (CoQ10(ubiquinone)≥Curcumin)>(Resveratrol≥DIM)>(Quercetin≥Berberine) • b) Relative surface tension interaction with quillaja powder: […]

Data set [2] is described as follows: Dispersibility / sedimentation of active powder with quillaja powder in DI water (time-dependent trial). To be noted: for Relative Dispersibilities without quillaja powder: FIGS. 1-6. Format: physicochemical. Here is the method:
This example sets forth compositions and methods for making compositions of one active ingredient with quillaja powder. Each of the compositions is prepared by mixing one active ingredient with quillaja powder at a fixed ratio of about 75:25, about 60:40, about 50:50, about 40:60, or about 25:75. This example also sets forth methods to test the dispersibilities of the resulting compositions.
• 1. Add 5 mL DI water to 15 mL disposable glass test tube • 2. Weight out Active ingredient (back weigh for accuracy) • a. For 100% active ingredient, weigh out close to the target amount, note the weight, then zero the balance (with active ingredient still on it) • b. Add active ingredient to test tube with DI water • c. Place mostly empty powder weight boat back onto scale and record actual weight added • d. For other mixtures of active ingredient and quillaja powder, perform similar but add to new weight boat to mix powders (instead of adding directly to test tube) • 3. Weigh out quillaja powder (back weigh for accuracy) • a. Weigh out close to target amount of quillaja, note the weight, then zero the balance (with quillaja still on it) • b. Add quillaja to mixture weight boat (with active) • c. Place mostly empty quillaja weigh boat back onto scale and record actual weight added • 4. Repeat for all ratios of powder mixtures below (dose-dependent study):
• 5. Mix powders together • 6. Add powder mixture to the test tube with DI water. Vortex for exactly 2 minutes and perform time-dependent study • 7. Let settle for 10 minutes then take picture/note observations such as degree of turbidity, dispersibility, any large solids, etc. • 8. After 30 minutes (total), take picture/note observations • 9. After 2 hours (total), take picture/note observations • 10. After 4 hours (total), take picture/note observations • 11. Take special note of the size of the solid “pellet” that settles out on the bottom • a. Try to measure its size (estimated) by taking the radius/diameter combined with the height
This example sets forth compositions of CoQ10 powder and quillaja powder at fixed ratios of 100:0, about 75:25, about 60:40, about 50:50, about 40:60, and about 25:75 respectively. As used herein in Example A2, CoQ10 powder is ubiquinone powder as CoQ10(ubiquinone) powder. The compositions have been prepared according to experimental procedures in Example 1A. A time-dependent trial of sedimentation rates of the compositions comprising ubiquinone powder and quillaja powder at different ratios in water was conducted at time points of 10 minutes, 30 minutes, 2 hours, and 4 hours are shown in FIG. 1. Regarding the test tubes in each of the pictures of FIG. 1, from right to left, the weight ratios of CoQ10(ubiquinone) powder to quillaja powder are in the order of 100:0, about 75:25, about 60:40, about 50:50, about 40:60, and about 25:75 respectively. […] Increasing extent of turbidity was indicative of the highest dispersibility and solubility.
This example sets forth comparisons of the dispersibilities for compositions of Examples A2-A7, which comprise various active ingredients mixed with quillaja powder at various fixed ratios. After comparing the results shown in FIGS. 1-6, the relative dispersibilities are as following: • a) Relative Dispersibilities without quillaja powder: Quercetin>Berberine>Resveratrol>Curcumin>DIM>CoQ10(ubiquinone) • b) Relative Dispersibilities with quillaja powder at time point of 30 minute or less: Quercetin>(Curcumin=Resveratrol)>(DIM=Berberine)>CoQ10(ubiquinone) • c) Relative Dispersibilities with quillaja powder at time point of 2 hours or more Quercetin>(DIM=Curcumin=Resveratrol)>Berberine>CoQ10(ubiquinone)

Data set [3] can be described thus: Bioaccessibility of ubiquinol by simulated in vitro digestion. Format: in vitro ADME. The note with it: HPLC of filtered supernatant. An excerpt: In some embodiments, methods of increasing the bioaccessibility and/or bioavailability of an active ingredient in a subject are provided. The active ingredient can be any active ingredients, such as, but not limited to, those described herein. In some embodiments, the methods comprise administering to the subject any of the compositions provided for herein. The administration can be by any method, such as those described herein. […] An increase in bioaccessibility can be determined by any suitable method. For example, bioaccessibility can be measured by simulated in vitro digestion. […] Without being bound to any particular method, in some embodiments, bioaccessibility is determined by mixing a sample (a composition) with a saliva solution and, optionally, mucin. […] The samples can then be analyzed by HPLC to determine the increase in bioaccessibility. Bioaccessibility can be calculated by dividing the amount of the at least one active ingredient measured by, for example HPLC, by the theoretical (or actual amount of ubiquinol in the sample)×100 to determine the percent bioaccessibility. […]
This example sets forth to test the effect of quillaja powder on bioaccessiblity of ubiquinol. Bioaccessibility of ubiquinol was measured by simulated in vitro digestion. […] Bioaccessibility (%)=(ubiquinol measured by HPLC/theoretical amount of ubiquinol in the sample)×100%.

Where [4] appears, read: active:quillaja 100:0, DI water, 10 minutes, 30 minutes, 2 hours, 4 hours.

We go through 6 molecules from patent US11622947B2, “Compositions comprising quillaja extract and methods of preparations and use thereof” (American River Nutrition, LLC, priority 2019, dated 2023).

Entries after “also recorded” stand apart in the source; their conditions may differ. Like-named read-outs stand apart in the source and are kept apart here.

On to `O=c1c(O)c(-c2ccc(O)c(O)c2)oc2cc(O)cc(O)c12` [Quercetin, quercetin], for which, in data set [1], the “Relative surface tension interaction without quillaja powder” value is reported as “(CoQ10(ubiquinone)≥Curcumin)>(Resveratrol≥DIM)>(Quercetin≥Berberine)”. The “Relative surface tension interaction without quillaja powder” value in data set [1] (listed as quercetin) was “Lowest surface tension”. In data set [2], the “dispersibility and solubility in water, tube without quillaja powder” value is on record as “complete separation”; the “Relative Dispersibilities with quillaja powder at time point of 30 minute or less” value (“Relative Dispersibilities … of 30 minute or less” below) is “Quercetin>(Curcumin=Resveratrol)>(DIM=Berberine)>CoQ10(ubiquinone)”; the “Relative Dispersibilities with quillaja powder at time point of 2 hours or more” value (from here on “Relative Dispersibilities … of 2 hours or more”) was “Quercetin>(DIM=Curcumin=Resveratrol)>Berberine>CoQ10(ubiquinone)”; the “Relative Dispersibilities without quillaja powder” value was “Quercetin>Berberine>Resveratrol>Curcumin>DIM>CoQ10(ubiquinone)”.

Consider `COc1c(O)c(C)c(C/C=C(\C)CC/C=C(\C)CC/C=C(\C)CC/C=C(\C)CC/C=C(\C)CC/C=C(\C)CC/C=C(\C)CC/C=C(\C)CC/C=C(\C)CCC=C(C)C)c(O)c1OC` [sample A, ubiquinol], for which the bioaccessibility of ubiquinol in data set [3] is listed as 0.88%.

Turning to `COc1cc(/C=C/C(=O)CC(=O)/C=C/c2ccc(O)c(OC)c2)ccc1O` [Curcumin, curcumin], the “Relative surface tension interaction without quillaja powder” value in data set [1] is recorded as “(CoQ10(ubiquinone)≥Curcumin)>(Resveratrol≥DIM)>(Quercetin≥Berberine)”. Also, the “Relative surface tension interaction without quillaja powder” value in data set [1] (listed as curcumin) was “Highest surface tension”. Moreover, in data set [2] (setting [4]), the “dispersibility and solubility in water, tube without quillaja powder” value was “complete separation”. In data set [2], the “Relative Dispersibilities … of 30 minute or less” value is “Quercetin>(Curcumin=Resveratrol)>(DIM=Berberine)>CoQ10(ubiquinone)”, the “Relative Dispersibilities … of 2 hours or more” value is recorded as “Quercetin>(DIM=Curcumin=Resveratrol)>Berberine>CoQ10(ubiquinone)” and the “Relative Dispersibilities without quillaja powder” value is listed as “Quercetin>Berberine>Resveratrol>Curcumin>DIM>CoQ10(ubiquinone)”.

On to `COC1=C(OC)C(=O)C(C/C=C(\C)CC/C=C(\C)CC/C=C(\C)CC/C=C(\C)CC/C=C(\C)CC/C=C(\C)CC/C=C(\C)CC/C=C(\C)CC/C=C(\C)CCC=C(C)C)=C(C)C1=O` [CoQ10(ubiquinone), ubiquinone], for which, in data set [1], the “Relative surface tension interaction without quillaja powder” value is recorded as “(CoQ10(ubiquinone)≥Curcumin)>(Resveratrol≥DIM)>(Quercetin≥Berberine); also recorded: Highest surface tension”. In data set [2], the “dispersibility and solubility in water, tube without quillaja powder” value is reported as “complete separation”; the “Relative Dispersibilities … of 30 minute or less” value was “Quercetin>(Curcumin=Resveratrol)>(DIM=Berberine)>CoQ10(ubiquinone)”; the “Relative Dispersibilities … of 2 hours or more” value is “Quercetin>(DIM=Curcumin=Resveratrol)>Berberine>CoQ10(ubiquinone)”; the “Relative Dispersibilities without quillaja powder” value is “Quercetin>Berberine>Resveratrol>Curcumin>DIM>CoQ10(ubiquinone)”.

Take `Oc1ccc(C=Cc2cc(O)cc(O)c2)cc1` [Resveratrol, resveratrol]: the “Relative surface tension interaction without quillaja powder” value in data set [1] is reported as “(CoQ10(ubiquinone)≥Curcumin)>(Resveratrol≥DIM)>(Quercetin≥Berberine)”. For the same molecule, the “dispersibility and solubility in water, tube without quillaja powder” value in data set [2] (setting [4]) is “complete separation”. In data set [2], the “Relative Dispersibilities … of 30 minute or less” value is reported as “Quercetin>(Curcumin=Resveratrol)>(DIM=Berberine)>CoQ10(ubiquinone)”, the “Relative Dispersibilities … of 2 hours or more” value is “Quercetin>(DIM=Curcumin=Resveratrol)>Berberine>CoQ10(ubiquinone)” and the “Relative Dispersibilities without quillaja powder” value is recorded as “Quercetin>Berberine>Resveratrol>Curcumin>DIM>CoQ10(ubiquinone)”.

With `COc1ccc2cc3[n+](cc2c1OC)CCc1cc2c(cc1-3)OCO2` [Berberine, berberine], in data set [1], the “Relative surface tension interaction without quillaja powder” value is given as “(CoQ10(ubiquinone)≥Curcumin)>(Resveratrol≥DIM)>(Quercetin≥Berberine)”. Also, the “Relative surface tension interaction without quillaja powder” value in data set [1] (listed as berberine) is “Lowest surface tension”. Besides, in data set [2] (setting [4]), the “dispersibility and solubility in water, tube without quillaja powder” value is “complete separation”. Besides, in data set [2], the “Relative Dispersibilities … of 30 minute or less” value was “Quercetin>(Curcumin=Resveratrol)>(DIM=Berberine)>CoQ10(ubiquinone)”, the “Relative Dispersibilities … of 2 hours or more” value is “Quercetin>(DIM=Curcumin=Resveratrol)>Berberine>CoQ10(ubiquinone)” and the “Relative Dispersibilities without quillaja powder” value is recorded as “Quercetin>Berberine>Resveratrol>Curcumin>DIM>CoQ10(ubiquinone)”.
